We go through 6 compounds from ChEMBL document CHEMBL4308853, “Design, Synthesis, and Pharmacological Evaluation of Novel β2/3 Subunit-Selective γ-Aminobutyric Acid Type A (GABAA) Receptor Modulators” (J Med Chem, 2018).

Each structure is given as a SMILES string. pEC50: −log10 of the molar value. Activity calls are given as the source filed them.

For experiment [1], the target named is T1, GABA-A receptor; alpha-1/beta-3/gamma-2 (Homo sapiens, UniProt P14867+P18507+P28472).
T1 sequence (P14867 whole entry): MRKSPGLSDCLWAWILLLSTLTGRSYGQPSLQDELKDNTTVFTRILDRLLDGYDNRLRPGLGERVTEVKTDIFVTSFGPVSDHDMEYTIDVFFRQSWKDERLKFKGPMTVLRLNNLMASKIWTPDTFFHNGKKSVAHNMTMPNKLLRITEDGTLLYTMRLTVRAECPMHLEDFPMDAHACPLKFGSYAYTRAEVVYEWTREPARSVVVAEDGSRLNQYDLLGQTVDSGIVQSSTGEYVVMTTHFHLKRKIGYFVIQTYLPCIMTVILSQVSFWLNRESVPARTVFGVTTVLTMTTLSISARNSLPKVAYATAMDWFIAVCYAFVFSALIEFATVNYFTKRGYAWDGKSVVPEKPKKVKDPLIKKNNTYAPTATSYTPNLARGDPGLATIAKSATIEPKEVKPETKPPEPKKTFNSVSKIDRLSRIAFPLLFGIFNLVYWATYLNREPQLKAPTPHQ
T1 sequence (P18507 whole entry): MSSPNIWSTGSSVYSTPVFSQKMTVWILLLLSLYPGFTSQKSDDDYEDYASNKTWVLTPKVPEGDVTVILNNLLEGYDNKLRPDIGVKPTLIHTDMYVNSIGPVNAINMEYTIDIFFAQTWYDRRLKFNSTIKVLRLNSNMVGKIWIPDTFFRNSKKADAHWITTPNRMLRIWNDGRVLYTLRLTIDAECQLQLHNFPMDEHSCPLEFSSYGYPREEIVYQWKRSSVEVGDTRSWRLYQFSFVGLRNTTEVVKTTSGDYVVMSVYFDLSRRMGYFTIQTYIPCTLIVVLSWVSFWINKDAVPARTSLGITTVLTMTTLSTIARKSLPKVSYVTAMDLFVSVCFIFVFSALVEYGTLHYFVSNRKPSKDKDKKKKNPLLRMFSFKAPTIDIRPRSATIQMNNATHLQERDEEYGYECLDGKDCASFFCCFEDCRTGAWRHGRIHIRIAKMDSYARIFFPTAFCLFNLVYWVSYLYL
T1 sequence (P28472 whole entry): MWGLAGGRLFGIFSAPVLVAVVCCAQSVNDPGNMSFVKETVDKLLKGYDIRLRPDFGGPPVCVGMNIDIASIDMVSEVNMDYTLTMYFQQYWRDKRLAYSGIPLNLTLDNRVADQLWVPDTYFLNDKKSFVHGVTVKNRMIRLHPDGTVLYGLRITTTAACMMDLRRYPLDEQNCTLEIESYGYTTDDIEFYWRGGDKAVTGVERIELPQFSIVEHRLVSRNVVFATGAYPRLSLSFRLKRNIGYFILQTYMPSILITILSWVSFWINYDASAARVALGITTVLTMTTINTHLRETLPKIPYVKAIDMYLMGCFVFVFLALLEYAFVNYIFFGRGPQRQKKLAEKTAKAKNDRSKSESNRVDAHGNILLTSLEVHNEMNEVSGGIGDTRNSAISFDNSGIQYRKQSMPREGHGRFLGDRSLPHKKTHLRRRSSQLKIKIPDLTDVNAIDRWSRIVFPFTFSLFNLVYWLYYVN
As to the kind of experiment: Positive allosteric modulation of GABA-A alpha1beta3gamma2S receptor (unknown origin) expressed in Xenopus laevis oocytes assessed as increase in GABA-induced chloride current after 15 mins at -70 mV holding potential by two-microelectrode voltage clamp method. The class given is cell-based.

Experiment [2] addresses T2, GABA-A receptor; alpha-1/beta-2/gamma-2 (Homo sapiens, UniProt P14867+P18507+P47870).
T2 sequence (P14867 whole entry): T1 sequence (P14867 whole entry)
T2 sequence (P47870 whole entry): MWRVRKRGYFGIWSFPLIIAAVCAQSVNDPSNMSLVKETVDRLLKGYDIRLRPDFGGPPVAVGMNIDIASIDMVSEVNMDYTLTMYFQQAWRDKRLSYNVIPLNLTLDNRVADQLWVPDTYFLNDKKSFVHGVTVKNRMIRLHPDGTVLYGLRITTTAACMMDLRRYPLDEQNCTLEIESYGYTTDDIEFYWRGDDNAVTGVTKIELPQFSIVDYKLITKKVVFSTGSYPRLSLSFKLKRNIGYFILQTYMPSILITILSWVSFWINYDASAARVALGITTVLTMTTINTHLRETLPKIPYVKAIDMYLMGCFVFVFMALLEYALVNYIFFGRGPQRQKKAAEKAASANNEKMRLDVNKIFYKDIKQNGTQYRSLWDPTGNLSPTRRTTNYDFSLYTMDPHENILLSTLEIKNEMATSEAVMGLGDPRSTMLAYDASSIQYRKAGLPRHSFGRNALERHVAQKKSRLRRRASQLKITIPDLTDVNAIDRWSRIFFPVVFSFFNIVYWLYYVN
T2 sequence (P18507 whole entry): T1 sequence (P18507 whole entry)
As to the kind of experiment: Positive allosteric modulation of GABA-A alpha1beta2gamma2S receptor (unknown origin) expressed in Xenopus laevis oocytes assessed as increase in GABA-induced chloride current after 15 mins at -70 mV holding potential by two-microelectrode voltage clamp method. The class given is cell-based.

The target in experiment [3] is T3, GABA A receptor alpha-1/beta-1/gamma-2 (Homo sapiens, UniProt P14867+P18505+P18507).
T3 sequence (P14867 whole entry): T1 sequence (P14867 whole entry)
T3 sequence (P18507 whole entry): T1 sequence (P18507 whole entry)
T3 sequence (P18505 whole entry): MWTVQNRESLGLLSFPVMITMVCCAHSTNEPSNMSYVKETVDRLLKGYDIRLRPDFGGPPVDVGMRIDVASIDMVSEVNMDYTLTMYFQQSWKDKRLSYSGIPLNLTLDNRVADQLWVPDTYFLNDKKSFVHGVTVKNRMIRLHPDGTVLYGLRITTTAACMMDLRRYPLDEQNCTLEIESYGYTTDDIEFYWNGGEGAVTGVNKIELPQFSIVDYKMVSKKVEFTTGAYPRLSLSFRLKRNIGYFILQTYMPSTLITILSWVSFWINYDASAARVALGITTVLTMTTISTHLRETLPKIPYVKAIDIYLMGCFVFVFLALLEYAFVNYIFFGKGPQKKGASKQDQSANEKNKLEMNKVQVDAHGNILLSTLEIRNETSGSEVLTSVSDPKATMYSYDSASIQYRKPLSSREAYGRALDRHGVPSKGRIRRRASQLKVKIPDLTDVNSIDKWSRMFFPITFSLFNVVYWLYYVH
Nature of the experiment: Positive allosteric modulation of GABA-A alpha1beta1gamma2S receptor (unknown origin) expressed in Xenopus laevis oocytes assessed as increase in GABA-induced chloride current after 15 mins at -70 mV holding potential by two-microelectrode voltage clamp method. The class given is cell-based.

Experiment [4] addresses GABA-A receptor; anion channel (Rattus norvegicus) (UniProt O09028+P15431+P18506+P18508+P19969+P20236+P23574+P23576+P28471+P28473+P30191+P62813+P63079+P63138+Q91ZM7+Q9ES14). As to the kind of experiment: Positive allosteric modulation of GABA-A receptor in Sprague-Dawley rat primary hippocampal neurons assessed as channel-mediated tonic current at 30 uM pretreated for 300 secs followed by BMI addition for 10 secs at -70 mV holding potential by patch-clamp method (reference value: -63 pA). The experiment is classed as protein-complex assay. On the technique in general: Patch clamp records ionic current or voltage across a cell membrane.

In a further experiment the test system is Mus musculus. Nature of the experiment: Anticonvulsive activity in C57BL/6N mouse assessed as protection against 49 +/- 1.8 mg/kg pentylenetetrazole-induced seizures by measuring elevation in seizure threshold at 10 mg/kg, ip pretreated for 30 mins followed by pentylenetetrazole tail-vein infusion. The class given is functional, organism-based.

Usually pEC50 stands for the negative decadic logarithm of the EC50, by convention in mol/L. With `C/C(=C\C#N)c1ccc(Cl)cc1Cl`, the pEC50 in experiment [1] was 4.00. For the compound `C/C(=C(\C#N)C(N)=O)c1ccc(Cl)cc1Cl`, the negative-log EC50 (pEC50) in experiment [2] was 4.40; in experiment [1], 4.36. `CC(=CC#N)c1ccc(C)cc1Cl` (mixture of isomers): the figures for the negative logarithm of the EC50 (pEC50) in experiment [2], in experiment [3] and in experiment [1] were 4.39, 3.57 and 4.39, respectively. `C/C(C#N)=C\c1ccc(C)cc1Cl`: in experiment [1], the pEC50 is 4.36.

Consider `CC1=C2[C@H](/C=C(\C)C(=O)O)CC[C@@H](C)[C@H]2CC1` [VALERENIC ACID], for which, in experiment [4], the Activity was -115 pA. The result with Mus musculus was Active. Moreover, in experiment [1], the pEC50 was 4.72.

As to `CC(=C(C#N)C(N)=O)c1ccc(Cl)cc1Cl` (mixture of isomers), the pEC50 in experiment [1] was 4.17.
